ChEMBL document CHEMBL1156786, “Conformationally constrained mimetics of laminin peptide YIGSR as precursors for antimetastatic disintegrins” (J Med Chem, 2009)
Where a SMILES comes first, the peptide text is derived from it.

What was measured:
Type in all cases: cell-based
[1] = target: Small ribosomal subunit protein uS2 (Homo sapiens) (UniProt P08865); assay: Binding affinity to LAMR1 in human HT1080 cells assessed as maximal cell attachment to compound coated plates after 3 hrs by hemocytometer; details: HT-1080
[2] = target: Small ribosomal subunit protein uS2 (Homo sapiens) (UniProt P08865); assay: Binding affinity to LAMR1 in human HeLa cells assessed as maximal cell attachment to compound coated plates after 3 hrs by hemocytometer
[3] = target: Small ribosomal subunit protein uS2 (Mus musculus) (UniProt P14206); assay: Binding affinity to LAMR1 in mouse B16-F10 cells assessed as maximal cell attachment to compound coated plates after 3 hrs by hemocytometer
[4] = target: Small ribosomal subunit protein uS2 (Homo sapiens) (UniProt P08865); assay: Binding affinity to LAMR1 in human HT1080 cells assessed as maximal cell attachment to compound coated plates at 0.2 ug/well after 3 hrs by hemocytometer; details: HT-1080
[5] = target: Small ribosomal subunit protein uS2 (Homo sapiens) (UniProt P08865); assay: Binding affinity to LAMR1 in human HT1080 cells assessed as maximal cell attachment to compound coated plates at 20 ug/well after 3 hrs by hemocytometer; details: HT-1080

For CC[C@H](C)[C@@H]1NC(=O)[C@H](Cc2ccc(O)cc2)NC(=O)[C@H](CC(N)=O)NC(=O)[C@H](CCCNC(=N)N)NC(=O)[C@H](CO)NC(=O)[C@@H](CCCCN)NC1=O, the Activity [1] was 64% and the Activity [2] was 29%.

CC[C@H](C)[C@@H]1NC(=O)[C@H](Cc2ccc(O)cc2)NC(=O)CNC(=O)[C@@H]2CCCN2C(=O)[C@H](CC(=O)O)NC(=O)[C@H](CCCNC(=N)N)NC(=O)[C@H](CO)NC(=O)[C@@H](CO)NC1=O showed an Activity [1] of 75%.

For CC[C@H](C)[C@@H]1NC(=O)[C@H](Cc2ccc(O)cc2)NC(=O)[C@H](CC(N)=O)NC(=O)[C@H](CCCNC(=N)N)NC(=O)[C@H](CO)NC(=O)[C@@H]2CCCN2C1=O (cyclo(IPSRNY)), the Activity [1] was 53% and the Activity [2] was 32%.

CC[C@H](C)[C@@H]1NC(=O)[C@H](Cc2ccc(O)cc2)NC(=O)[C@H](CC(N)=O)NC(=O)[C@H](CCCNC(=N)N)NC(=O)[C@H](CO)NC(=O)CNC1=O (cyclo(GSRNYI)) was tested, and the Activity [1] was 56% and the Activity [2] was 32%.

Compound CC[C@H](C)[C@H](NC(=O)[C@@H](N)Cc1ccc(O)cc1)C(=O)NCC(=O)N[C@@H](CO)C(=O)N[C@@H](CCCNC(=N)N)C(=O)N[C@H](C)C(=O)N[C@H](CCSC)C(=O)O has an Activity [1] of 53% and an Activity [2] of 31%.

In the case of CC[C@H](C)[C@@H]1NC(=O)[C@H](Cc2ccc(O)cc2)NC(=O)[C@H]2CCCN2C(=O)[C@H](CCCNC(=N)N)NC(=O)[C@H](CO)NC(=O)[C@@H](CO)NC1=O, the Activity [1] is reported as 76%.

Compound CC[C@H](C)[C@@H]1NC(=O)[C@H](Cc2ccc(O)cc2)NC(=O)CNC(=O)[C@H](CCCNC(=N)N)NC(=O)[C@H](CO)NC(=O)[C@@H](CO)NC1=O has an Activity [1] of 72%, an Activity [3] of 68% and an Activity [2] of 45%.

For CC[C@H](C)[C@@H]1NC(=O)[C@H](Cc2ccc(O)cc2)NC(=O)CNC(=O)[C@@H]2CCCN2C(=O)[C@H](CC(=O)O)NC(=O)[C@H](CCCNC(=N)N)NC(=O)[C@H](CO)NC(=O)[C@@H](CCCCN)NC1=O, the Activity [1] was 45%.

CC[C@H](C)[C@@H]1NC(=O)[C@H](Cc2ccc(O)cc2)NC(=O)[C@H](CC(N)=O)NC(=O)[C@H](CCCNC(=N)N)NC(=O)[C@H](CO)NC(=O)[C@@H]2CCCN2C(=O)[C@H]([C@@H](C)CC)NC(=O)[C@H](Cc2ccc(O)cc2)NC(=O)[C@H](CC(N)=O)NC(=O)[C@H](CCCNC(=N)N)NC(=O)[C@H](CO)NC(=O)[C@@H]2CCCN2C1=O (cyclo(IPSRNYIPSRNY)) was tested, and the Activity [1] was 57%.

With CC[C@H](C)[C@@H]1NC(=O)[C@H](Cc2ccc(O)cc2)NC(=O)[C@H](CC(N)=O)NC(=O)[C@H](CCCNC(=N)N)NC(=O)[C@H](CO)NC(=O)[C@@H](CO)NC1=O the Activity [1] was 81%, the Activity [3] was 45% and the Activity [2] was 46%. The Activity [4] was 20% and the Activity [5] was 40%.

With CC[C@H](C)[C@@H]1NC(=O)[C@H](Cc2ccc(O)cc2)NC(=O)CNC(=O)[C@@H]2CCCN2C(=O)[C@H](CC(=O)O)NC(=O)[C@H](CCCNC(=N)N)NC(=O)[C@H](CO)NC(=O)[C@@H](CCC(=O)O)NC1=O the Activity [1] was 62%.

Work on CC[C@H](C)[C@@H]1NC(=O)[C@H](Cc2ccc(O)cc2)NC(=O)CNC(=O)[C@@H]2CCCN2C(=O)[C@H](CC(=O)O)NC(=O)[C@H](CCCNC(=N)N)NC(=O)[C@H](CO)NC(=O)CNC1=O (cyclo(DPGYIGSR)) yielded an Activity [1] of 67%, an Activity [3] of 62% and an Activity [2] of 40%.

For CC[C@H](C)[C@@H]1NC(=O)[C@H](Cc2ccc(O)cc2)NC(=O)[C@H](CC(N)=O)NC(=O)[C@H](CCCNC(=N)N)NC(=O)[C@H](CO)NC(=O)[C@@H](CO)NC(=O)[C@H]([C@@H](C)CC)NC(=O)[C@H](Cc2ccc(O)cc2)NC(=O)[C@H](CC(N)=O)NC(=O)[C@H](CCCNC(=N)N)NC(=O)[C@H](CO)NC(=O)[C@@H](CO)NC1=O, the Activity [1] was 48%.

Work on CC[C@H](C)[C@@H]1NC(=O)[C@H](Cc2ccc(O)cc2)NC(=O)[C@H](CC(N)=O)NC(=O)[C@H](CCCNC(=N)N)NC(=O)[C@H](CO)NC(=O)[C@@H](CCC(=O)O)NC1=O yielded an Activity [1] of 76%, an Activity [3] of 58% and an Activity [2] of 43%.
